Experimental data as given in patent US20250340554A1, “5-Amino-1H-Pyrrolo[3,2-b]Pyridine-2-Carboxamide Derivatives as MTA-Cooperative Inhibitors of PRMT5” (BeOne Medicines I GmbH, priority 2023, published 2025).

Experiments:
HCT116-MTAP-KO = test: Compounds cell killing in HCT116 isogenic pair (Cell Titer-Glo viability), MTAP-KO cells; format: cell-based; conditions: Homo sapiens, HCT-116, 144 h, 6 days, 0-10 μM compound, * = more than 50% viability inhibition at tested concentration without a full curve
Excerpt: (§1) HCT116 cell line was obtained from ATCC (CCL-247). It has a mutation in codon 13 of the ras proto-oncogene and can be used as a positive control for PCR assays of mutation in this codon. HCT116-MTAP-KO was knocked-out-MTAP-gene based HCT116, and one single clone was passed for this assay. HCT116-mock-RNA-KO was knocked-out-mock-gene based HCT116 with MTAP wildtype genotype. The base medium for HCT116 isogenic pair is RPMI 1640, HEPES (Gibco, 22400105). To make the complete growth medium, add the following components to the base medium: fetal bovine serum to a final concentration of 10% (Gibco, 10099-141C). The cell line was grown in a humidified 5% CO2 atmosphere at 37° C. and regularly tested for the presence of mycoplasma with MycoAlert™ PLUS Mycoplasma Detection Kit (Lonza, LT07-710).
(§2) • Seed HCT116-mock-RNA-KO (400/well) or HCT116-MTAP-KO (400/well) cells into a 96-well plate (Greiner: 655090), 100 μL/well. • Incubate at 37° C., 5% CO2, overnight. • Add 50 μL fresh growth-medium containing serial dilution of compounds for a final compound concentration of 0-10 μM to each well. • Incubate at 37° C., 5% CO2, 6 days. • The cell viability detected by Cell Titer-Glo (Promega, G7573). Add 70 μL of CellTiter-Glo® reagent in each well. • Incubate at room temperature for 10 minutes to stabilize luminescent signal. • Analyze with Microplate Reader (TECAN, SPARK) and fit IC50 using Prism® 9.

HCT116-mock-RNA-KO = test: Compounds cell killing in HCT116 isogenic pair (Cell Titer-Glo viability), mock-RNA-KO cells (MTAP wildtype); format: cell-based; conditions: Homo sapiens, HCT-116, 144 h, 6 days, 0-10 μM compound
Excerpt: as §1, §2

Row | Structure (SMILES) | IC50 (HCT116-MTAP-KO) [nM] | IC50 (HCT116-mock-RNA-KO) [nM]
1 | Cc1cc2[nH]c(C(=O)N(Cc3ccc(-c4c(F)cccc4F)cn3)[C@@H]3CCCc4c(C5CC5)ccnc43)cc2nc1N (stereo in doubt) [Example A6, 5-amino-N-(4-cyclopropyl-5,6,7,8-tetrahydroquinolin-8-yl)-N-((5-(2,6-difluorophenyl)pyridin-2-yl)methyl)-6-methyl-1H-pyrrolo[3,2-b]pyridine-2-carboxamide] | < 4.6 | 1490
2 | Cc1cc2[nH]c(C(=O)N(Cc3ccc(-c4c(F)cccc4F)cn3)[C@@H]3CCCc4cccnc43)cc2nc1N [Example A1, (R)-5-amino-N-((5-(2,6-difluorophenyl)pyridin-2-yl)methyl)-6-methyl-N-(5,6,7,8-tetrahydroquinolin-8-yl)-1H-pyrrolo[3,2-b]pyridine-2-carboxamide] | < 0.5 | 155
3 | Cc1cc2[nH]c(C(=O)N(Cc3ccc(-c4ccccc4)cn3)[C@@H]3CCCc4cccnc43)cc2nc1N [Example A2, (R)-5-amino-6-methyl-N-((5-phenylpyridin-2-yl)methyl)-N-(5,6,7,8-tetrahydroquinolin-8-yl)-1H-pyrrolo[3,2-b]pyridine-2-carboxamide] | < 0.5 | 486
4 | Cc1cc2[nH]c(C(=O)N(Cc3ccc(-c4c(F)cncc4F)cn3)[C@@H]3CCCc4cccnc43)cc2nc1N [Example A3, (R)-5-amino-N-((3′,5′-difluoro-[3,4′-bipyridin]-6-yl)methyl)-6-methyl-N-(5,6,7,8-tetrahydroquinolin-8-yl)-1H-pyrrolo[3,2-b]pyridine-2-carboxamide] | 0.008 | 49
5 | Cc1cc2[nH]c(C(=O)N(Cc3ccc(-c4c(C)cnn4C)cn3)[C@@H]3CCCc4cccnc43)cc2nc1N [Example A4, (R)-5-amino-N-((5-(1,4-dimethyl-1H-pyrazol-5-yl)pyridin-2-yl)methyl)-6-methyl-N-(5,6,7,8-tetrahydroquinolin-8-yl)-1H-pyrrolo[3,2-b]pyridine-2-carboxamide] | 30 | 2360
6 | Cc1cc2[nH]c(C(=O)N(Cc3ccc(-c4c(F)cccc4F)cn3)[C@@H]3CCCc4cccnc43)c(Br)c2nc1N [Example A5, (R)-5-amino-3-bromo-N-((5-(2,6-difluorophenyl)pyridin-2-yl)methyl)-6-methyl-N-(5,6,7,8-tetrahydroquinolin-8-yl)-1H-pyrrolo[3,2-b]pyridine-2-carboxamide] | 167 | 3340
7 | Cc1cc2[nH]c(C(=O)N(Cc3ccc(-c4c(F)cccc4F)cn3)C3CCCc4c(C(C)(C)O)ccnc43)cc2nc1N (stereo not shown) [Example A7, 5-amino-N-((5-(2,6-difluorophenyl)pyridin-2-yl)methyl)-N-(4-(2-hydroxypropan-2-yl)-5,6,7,8-tetrahydroquinolin-8-yl)-6-methyl-1H-pyrrolo[3,2-b]pyridine-2-carboxamide] | < 4.6 | 339
8 | Cc1cc2[nH]c(C(=O)N(Cc3cc(Cl)c(-c4ccccc4)cn3)[C@@H]3CCCc4cccnc43)cc2nc1N [Example A8, (R)-5-amino-N-((4-chloro-5-phenylpyridin-2-yl)methyl)-6-methyl-N-(5,6,7,8-tetrahydroquinolin-8-yl)-1H-pyrrolo[3,2-b]pyridine-2-carboxamide] | < 4.6 | 2040
9 | Cc1cc2[nH]c(C(=O)N(Cc3ccc(-c4cn[nH]c4)c(C)n3)C3CCCc4cccnc43)cc2nc1N (stereo not shown) [Example A9, 5-amino-6-methyl-N-((6-methyl-5-(1H-pyrazol-4-yl)pyridin-2-yl)methyl)-N-(5,6,7,8-tetrahydroquinolin-8-yl)-1H-pyrrolo[3,2-b]pyridine-2-carboxamide] | 86 | 4180
10 | Cc1cc2[nH]c(C(=O)N(Cc3ccc(-c4c(Cl)cccc4Cl)cn3)C3CCCc4cccnc43)cc2nc1N (stereo not shown) [Example A10, 5-amino-N-((5-(2,6-dichlorophenyl)pyridin-2-yl)methyl)-6-methyl-N-(5,6,7,8-tetrahydroquinolin-8-yl)-1H-pyrrolo[3,2-b]pyridine-2-carboxamide] | 217 | 3480
11 | Cc1cc2[nH]c(C(=O)N(Cc3ccc(-c4c(F)c(F)c(F)c(F)c4F)cn3)[C@@H]3CCCc4cccnc43)cc2nc1N [Example A11, (R)-5-amino-6-methyl-N-((5-(perfluorophenyl)pyridin-2-yl)methyl)-N-(5,6,7,8-tetrahydroquinolin-8-yl)-1H-pyrrolo[3,2-b]pyridine-2-carboxamide] | < 4.6 | 1470
12 | Nc1nc2cc(C(=O)N(Cc3ccc(-c4c(F)cccc4F)cn3)[C@@H]3CCCc4cccnc43)[nH]c2cc1Br [Example A12, (R)-5-amino-6-bromo-N-((5-(2,6-difluorophenyl)pyridin-2-yl)methyl)-N-(5,6,7,8-tetrahydroquinolin-8-yl)-1H-pyrrolo[3,2-b]pyridine-2-carboxamide] | < 4.6 | 661
13 | Cc1cc2[nH]c(C(=O)N(Cc3ccc(-c4ncnn4C)cn3)[C@@H]3CCCc4cccnc43)cc2nc1N [Example A13, (R)-5-amino-6-methyl-N-((5-(1-methyl-1H-1,2,4-triazol-5-yl)pyridin-2-yl)methyl)-N-(5,6,7,8-tetrahydroquinolin-8-yl)-1H-pyrrolo[3,2-b]pyridine-2-carboxamide] | 83 | > 10000
14 | Cc1cc2[nH]c(C(=O)N(Cc3ccc(-c4c(F)cccc4Cl)cn3)C3CCCc4cccnc43)cc2nc1N (stereo not shown) [Example A14, 5-amino-N-((5-(2-chloro-6-fluorophenyl)pyridin-2-yl)methyl)-6-methyl-N-(5,6,7,8-tetrahydroquinolin-8-yl)-1H-pyrrolo[3,2-b]pyridine-2-carboxamide] | 2.9 | 1120
15 | Cc1cc2[nH]c(C(=O)N(Cc3ccc(-c4c(F)cccc4C#N)cn3)C3CCCc4cccnc43)cc2nc1N (stereo not shown) [Example A15, 5-amino-N-((5-(2-cyano-6-fluorophenyl)pyridin-2-yl)methyl)-6-methyl-N-(5,6,7,8-tetrahydroquinolin-8-yl)-1H-pyrrolo[3,2-b]pyridine-2-carboxamide] | 4.3 | 424
16 | Cc1cc2[nH]c(C(=O)N(Cc3ccc(-c4ccccn4)cn3)C3CCCc4cccnc43)cc2nc1N (stereo not shown) [Example A16, N-([2,3′-bipyridin]-6′-ylmethyl)-5-amino-6-methyl-N-(5,6,7,8-tetrahydroquinolin-8-yl)-1H-pyrrolo[3,2-b]pyridine-2-carboxamide] | 17 | 1640
17 | Cc1cc2[nH]c(C(=O)N(Cc3ccc(-c4c(F)cccc4F)cn3)[C@@H]3CCCc4cccnc43)c(F)c2nc1N [Example A17, (R)-5-amino-N-((5-(2,6-difluorophenyl)pyridin-2-yl)methyl)-3-fluoro-6-methyl-N-(5,6,7,8-tetrahydroquinolin-8-yl)-1H-pyrrolo[3,2-b]pyridine-2-carboxamide] | 66 | 2840
18 | Cc1cc2[nH]c(C(=O)N(Cc3ccc(-c4c(C)cnn4C)cc3F)C3CCCc4cccnc43)cc2nc1N (stereo not shown) [Example A18, 5-amino-N-(4-(1,4-dimethyl-1H-pyrazol-5-yl)-2-fluorobenzyl)-6-methyl-N-(5,6,7,8-tetrahydroquinolin-8-yl)-1H-pyrrolo[3,2-b]pyridine-2-carboxamide] | 21 | 2580
19 | Cc1cc2[nH]c(C(=O)N(Cc3ccc(-c4c(F)cccc4F)cn3)[C@@H]3CCCc4cccnc43)c(I)c2nc1N [Example A19, (R)-5-amino-N-((5-(2,6-difluorophenyl)pyridin-2-yl)methyl)-3-iodo-6-methyl-N-(5,6,7,8-tetrahydroquinolin-8-yl)-1H-pyrrolo[3,2-b]pyridine-2-carboxamide] | < 4.6 | 288
20 | Cc1cc2[nH]c(C(=O)N(Cc3ccc(-c4ccccc4)cn3)C3CCC3)cc2nc1N [Example B1, 5-amino-N-cyclobutyl-6-methyl-N-((5-phenylpyridin-2-yl)methyl)-1H-pyrrolo[3,2-b]pyridine-2-carboxamide] | 359 | > 10000
21 | COCC(COC)N(Cc1ccc(-c2c(F)cccc2F)cn1)C(=O)c1cc2nc(N)c(C)cc2[nH]1 [Example B2, 5-amino-N-((5-(2,6-difluorophenyl)pyridin-2-yl)methyl)-N-(1,3-dimethoxypropan-2-yl)-6-methyl-1H-pyrrolo[3,2-b]pyridine-2-carboxamide] | 5.5 | 1220
22 | Cc1cc2[nH]c(C(=O)N(Cc3ccc(-c4c(F)cccc4F)cn3)C3CC(F)(F)C3)cc2nc1N [Example B3, 5-amino-N-(3,3-difluorocyclobutyl)-N-((5-(2,6-difluorophenyl)pyridin-2-yl)methyl)-6-methyl-1H-pyrrolo[3,2-b]pyridine-2-carboxamide] | 864 | > 10000
23 | Cc1cc2[nH]c(C(=O)N(Cc3ccc(-c4ccccc4)cn3)C3CC3)cc2nc1N [Example B4, 5-amino-N-cyclopropyl-6-methyl-N-((5-phenylpyridin-2-yl)methyl)-1H-pyrrolo[3,2-b]pyridine-2-carboxamide] | 7820 | > 10000
